# Experimental data: patent US20050234066A1, “Alpha substituted carboxylic acids” (Agouron Pharmaceuticals, Inc., priority 2004, published 2005)
# Several values for one entry are separate records, joined by “and”; a condition that tells them apart may be missing. Equal values may be shown once. Read-outs that look alike come from different tables or passages of the source.
# Experiments:
# PPAR-γ = molecular target: T1, PPAR-γ (Homo sapiens, UniProt P37231); assay: Scintillation Proximity Assay (SPA), displacement of 3H labeled darglitazone; type: binding; details: 3H darglitazone displacement
# T1 sequence (P37231 1-505): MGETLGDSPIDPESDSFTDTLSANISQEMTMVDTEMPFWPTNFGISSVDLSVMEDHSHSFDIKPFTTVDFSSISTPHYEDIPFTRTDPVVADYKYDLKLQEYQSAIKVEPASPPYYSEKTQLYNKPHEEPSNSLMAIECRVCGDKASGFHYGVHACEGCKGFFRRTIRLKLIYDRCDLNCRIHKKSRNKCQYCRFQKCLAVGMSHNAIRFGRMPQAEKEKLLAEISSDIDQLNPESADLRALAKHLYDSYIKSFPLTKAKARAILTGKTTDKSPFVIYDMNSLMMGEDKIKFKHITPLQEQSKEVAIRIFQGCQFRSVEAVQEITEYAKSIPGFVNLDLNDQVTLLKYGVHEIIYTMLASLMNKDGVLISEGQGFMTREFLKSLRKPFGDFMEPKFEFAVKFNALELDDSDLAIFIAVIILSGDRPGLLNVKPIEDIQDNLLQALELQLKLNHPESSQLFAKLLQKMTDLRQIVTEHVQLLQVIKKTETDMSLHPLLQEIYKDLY
# From the text: (§1) Scintillatian Proximity Assay (SPA) Assays
# (§2) In the SPA assay, 3H labeled darglitazone (for PPAR-γ) or GW2331 (for PPAR-α) is bound to the PPAR protein captured on SPA polylysine beads and generates radioactive count signal that can be detected by TopCounts (Packard). The PPAR-bound 3H labeled ligand can be displaced by an unlabeled compound. The Ki of the compound can be then determined by the extent of displacement at various compound concentrations. Reagents: • SPA polylysine beads, which can be purchased from Amersham Bioscience. • H labeled Darglitazone for PPAR-γ. • H labeled GW2331 for PPAR-α. • PPAR proteins. • Buffer—PBS, 10% glycerol, 14 mM beta-mercaptoethanol.
# PPAR-α = molecular target: T2, PPAR-α (Homo sapiens, UniProt Q07869); assay: Scintillation Proximity Assay (SPA), displacement of 3H labeled GW2331; type: binding; details: 3H GW2331 displacement
# T2 sequence (Q07869 1-468): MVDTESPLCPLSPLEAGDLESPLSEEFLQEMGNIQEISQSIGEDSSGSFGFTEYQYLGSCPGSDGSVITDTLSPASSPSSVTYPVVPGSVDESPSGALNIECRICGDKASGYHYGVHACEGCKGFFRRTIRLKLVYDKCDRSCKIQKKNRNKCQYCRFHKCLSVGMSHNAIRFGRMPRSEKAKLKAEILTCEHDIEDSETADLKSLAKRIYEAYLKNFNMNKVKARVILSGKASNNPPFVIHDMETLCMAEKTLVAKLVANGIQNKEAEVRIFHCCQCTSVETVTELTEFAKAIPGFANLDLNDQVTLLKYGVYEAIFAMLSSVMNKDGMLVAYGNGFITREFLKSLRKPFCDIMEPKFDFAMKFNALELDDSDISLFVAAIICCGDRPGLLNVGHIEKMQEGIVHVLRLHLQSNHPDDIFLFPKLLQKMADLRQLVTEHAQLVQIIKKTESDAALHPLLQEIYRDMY
# From the text: as §1, §2
Structure (SMILES),Ki (PPAR-γ; read-out: PPAR-gamma Ki),Ki (PPAR-α; read-out: PPAR-alpha Ki),Ki (PPAR-γ; PPAR-gamma Ki) [nM],Ki (PPAR-α; PPAR-alpha Ki) [nM]
Cc1oc(-c2ccccc2)nc1COc1ccc(OC2(C(=O)O)CCC2)cc1 [Example C-42],33000 nM,13000 nM,,
COc1ccc(-c2ccc(CCOc3ccc(CC4(C(=O)O)CCC4)cc3)cc2)cn1 [Example C-10],2100 nM,19000 nM,,
"Cc1ccc(N2CCC(CCOc3cccc(-c4cccc(OC(C)(C)C(=O)O)c4)c3)CC2)nn1 [Example A-03, 2-Methyl-2-[(3′-{2-[1-(6-methylpyridazin-3-yl)piperidin-4-yl]ethoxy}1,1′-biphenyl-3-yl)oxy]propanoic acid]",10000 nM,19000 nM,,
Cc1oc(-c2cc(F)cc(F)c2)nc1CCOc1cccc(-c2cccc(OC(C)(C)C(=O)O)c2)c1 [Example A-22],170 nM,850 nM,,
Cc1nn(-c2ccccc2)nc1COc1cccc(-c2cccc(OC3(C(=O)O)CCC3)c2)c1 [Example A-18],1700 nM,14000 nM,,
CCC(Oc1cccc(CNC(=O)OCc2ccc(OCc3ccccc3)cn2)c1)C(=O)O (centres unmarked) [Example B-11],7900 nM,960 nM,,
CCS(=O)(=O)Oc1ccc(CCOc2ccc(CC(OC)C(=O)O)cn2)cc1 [Example D-11],6200 nM,5100 nM,,
COC(C)(Cc1ccc(OCCc2nc(-c3cccc(F)c3)oc2C)nc1)C(=O)O [Example D-42],700 nM,1000 nM,,
Cc1oc(-c2ccccc2)nc1CCOC(=O)NCc1ccc(OC(C)(C)C(=O)O)cc1F [Example B-09],1900 nM,2200 nM,,
Cc1oc(-c2ccccc2)nc1COc1ccc(CC2(C(=O)O)CCC2)cc1 [Example C-17],26000 nM,3200 nM,,
Cc1oc(-c2ccccc2)nc1CCOc1ccc(-c2cccc(OC3(C(=O)O)CCC3)c2)cc1 [Example A-10],1500 nM,4400 nM,,
"Cc1oc(-c2ccccc2)nc1CCOc1ccc(CC2(c3nnn[nH]3)CCCO2)cn1 (centres unmarked) [Example C-95, 2-[2-(5-Methyl-2-phenyl-oxazol-4-yl)-ethoxy]-5-[2-(1H-tetrazol-5-yl)-tetrahydro-furan-2-ylmethyl]-pyridine]",970 nM,8600 nM,,
Cc1oc(-c2ccccc2)nc1CCOC(=O)NCc1cccc(OC(C)(C)C(=O)O)c1 [Example B-05],1330 nM and 2900 nM and 2000 nM,2040 nM and 3200 nM and 3600 nM,,
Cc1sc(-c2ccccc2)nc1CCOc1ccc(CC2(C(=O)O)CCCO2)nc1 (centres unmarked) [Example C-51],180 nM,2900 nM,,
CCOC(Cc1cccc(CNC(=O)OCCCc2nc(-c3ccccc3)oc2C)c1)C(=O)O (centres unmarked) [Example B-23],3400 nM,2700 nM,,
Cc1oc(-c2ccccc2)nc1CCNC(=O)OCc1cccc(OC(C)(C)C(=O)O)c1 [Example B-21],990 nM,4000 nM,,
Cn1nc(-c2ccccc2)nc1CCOc1cccc(-c2cccc(OC(C)(C)C(=O)O)c2)c1 [Example A-25],3200 nM,4200 nM,,
CC(C)(Oc1cccc(CNC(=O)OCCc2cccc(C(F)(F)F)c2)c1)C(=O)O [Example B-03],31000 nM,9000 nM,,
Cc1oc(-c2ccccc2)nc1CCCOC(=O)NCc1ccc(OC(C)(C)C(=O)O)cc1 [Example B-07],650 nM,12000 nM,,
Cc1oc(-c2ccccc2)nc1C/C=C/c1ccc(OC2(C(=O)O)CCC2)cc1 [Example C-14],8000 nM,3200 nM,,
COc1cccc(-c2nc(CCOc3ccc(CC4(C(=O)O)CCCO4)nc3)c(C)o2)c1 (centres unmarked) [Example C-54],,,20,1200
CCOC(Cc1cccc(CNC(=O)OCCc2nc(-c3ccccc3)oc2C)c1)C(=O)O (centres unmarked) [Example B-24],1600 nM,1000 nM,,
O=C(O)C1(Cc2ccc(OCCc3ccc(-c4ccc5c(c4)OCC5)cc3)cc2)CCC1 [Example C-12],1600 nM,9400 nM,,
Cc1oc(-c2ccccc2)nc1CCOc1cnc(CC2(C(=O)O)CCCO2)cn1 (centres unmarked) [Example C-77],,2900 nM,150,
CC(C)(Oc1cccc(COC(=O)NCCc2ccc(C(F)(F)F)cc2)c1)C(=O)O [Example B-04],1500 nM,48000 nM,,
CCOc1ccc(-c2nc(CCOc3ccc(CC(C)(OC)C(=O)O)cn3)c(C)o2)cc1 [Example D-37],530 nM,4700 nM,,
CCOc1ccc(CCOc2ccc(CC(OCC)C(=O)O)cn2)cc1 [Example D-21],2100 nM,10000 nM,,
CC(C)(Oc1cccc(-c2cccc(OCCCOCc3ccccc3)c2)c1)C(=O)O [Example A-27],2400 nM,1300 nM,,
Cc1oc(-c2ccccc2)nc1CCCOc1cccc(-c2cccc(OC(C)(C)C(=O)O)n2)c1 [Example A-13],3500 nM,10000 nM,,

# The next lines start with results.
Ki (PPAR-γ; read-out: PPAR-gamma Ki),Ki (PPAR-α; read-out: PPAR-alpha Ki),Structure (SMILES),Ki (PPAR-γ; PPAR-gamma Ki) [nM],Ki (PPAR-α; PPAR-alpha Ki) [nM]
62 nM,53 nM,Cc1oc(-c2ccc(C#N)cc2)nc1CCOc1ccc(CC2(C(=O)O)CCCO2)cc1 (centres unmarked) [Example C-80],,
6 nM,120 nM,COc1cccc(-c2nc(CCOc3ccc(CC4(C(=O)O)CCC4)cc3)c(C)o2)c1 [Example C-29],,
3500 nM,65 nM,Cc1oc(-c2ccccc2)nc1CCOc1cccc(CC2(C(=O)O)CCC2)c1 [Example C-18],,
360 nM,190 nM,COC(Cc1ccc(OCCc2ccc(Oc3ccccc3)cc2)nc1)C(=O)O [Example D-13],,
19 nM,33 nM,COC(Cc1ccc(OCCc2nc(-c3ccc(C)cc3)oc2C)nc1)C(=O)O [Example D-10],,
6 nM,15 nM,Cc1oc(-c2ccccc2)nc1CCOc1ccc(CC2(C(=O)O)CCCO2)cc1 (centres unmarked) [Example C-78],,
33 nM,110 nM,Cc1oc(-c2cccc(C(F)(F)F)c2)nc1CCOc1ccc(CC2(C(=O)O)CCC2)cc1 [Example C-30],,
1800 nM,84 nM,Cc1oc(-c2ccccc2)nc1CCCOC(=O)NCc1cccc(OC2(C(=O)O)CCC2)c1 [Example B-16],,
11 nM,300 nM,COC(Cc1ccc(OCCc2nc(-c3cccc(C)c3)oc2C)nc1)C(=O)O [Example D-03],,
12 nM,25 nM,Cc1oc(-c2cccc(C(F)(F)F)c2)nc1CCOc1ccc(CC2(C(=O)O)CCCO2)cc1 (centres unmarked) [Example C-87],,
780 nM,18 nM,Cc1oc(-c2ccccc2)nc1COc1cccc(-c2cccc(OC(C)(C)C(=O)O)c2)c1 [Example A-24],,
580 nM,120 nM,Cc1oc(-c2cccc(F)c2)nc1COc1cccc(-c2cccc(OC3(C(=O)O)CCC3)c2)c1 [Example A-11],,
350 nM,220 nM,CCOC(Cc1ccc(OCCc2nc(-c3ccc(Cl)cc3)oc2C)nc1)C(=O)O [Example D-15],,
88 nM,310 nM,Cc1oc(-c2cccc(F)c2)nc1CCOc1cccc(-c2cccc(OC(C)(C)C(=O)O)c2)c1 [Example A-21],,
66 nM,18 nM,Cc1oc(-c2ccc(Cl)c(Cl)c2)nc1CCOc1ccc(CC2(C(=O)O)CCC2)cc1 [Example C-25],,
7 nM,15 nM,Cc1oc(-c2cccc(N(C)C)c2)nc1CCOc1ccc(CC2(C(=O)O)CCCO2)cc1 (centres unmarked) [Example C-79],,
230 nM,730 nM,COC(C)(Cc1ccc(OCCc2nc(-c3cccc(C)c3)oc2C)nc1)C(=O)O [Example D-36],,
390 nM,180 nM,Cc1oc(-c2ccccc2)nc1CCCOc1cccc(-c2cccc(OC(C)(C)C(=O)O)c2)c1 [Example A-23],,
26 nM,15 nM,Cc1oc(-c2ccc(Cl)cc2)nc1CCOc1ccc(CC2(C(=O)O)CCC2)cc1 [Example C-27],,
51 nM,350 nM,Cc1oc(-c2ccccc2)nc1CCCOc1cccc(-c2cccc(OC3(C(=O)O)CCC3)c2)c1 [Example A-12],,
440 nM,290 nM,COC(Cc1ccc(OCCc2nc(-c3ccc(Cl)cc3)oc2C)nc1)C(=O)O [Example D-04],,
1000 nM,88 nM,COC(C)(Cc1ccc(OCCc2nc(-c3ccc(C(F)(F)F)cc3)oc2C)nc1)C(=O)O [Example D-31],,
50 nM,10 nM,Cc1oc(-c2ccc(C(F)(F)F)cc2)nc1CCOc1ccc(CC2(C(=O)O)CCC2)cc1 [Example C-33],,
11 nM,300 nM,Cc1oc(-c2ccccc2)nc1COc1ccc2cc(CC3(C(=O)O)CCCO3)ccc2c1 (centres unmarked) [Example C-93],,
61 nM,50 nM,COC(Cc1ccc(OCCc2nc(-c3ccc(C(F)(F)F)cc3)oc2C)nc1)C(=O)O [Example D-09],,
690 nM,550 nM,COC(C)(Cc1ccc(OCCc2nc(-c3ccccc3)sc2C)nc1)C(=O)O [Example D-33],,
